Results reported in patent publication US8889878B2, “Haloalky-substituted amides as insecticides and acaricides” (Bayer CropScience AG, priority 2009, dated 2014).

Test: logP by HPLC on reverse-phase column (EEC Directive 79/831 Annex V.A8)
Assay type: physicochemical
Conditions: HPLC, C18 reverse phase, 43° C., acidic range pH 2.7, calibration with alkan-2-ones
Method: The logP values reported in the above Tables and Preparation Examples were determined according to EEC Directive 79/831 Annex V.A8 by HPLC (High Performance Liquid Chromatography) on a reverse-phase column (C18). Temperature 43° C.

logP | Compound
HPLC-MS: logP = 2.92; mass | CS(=O)(=O)c1ccc2[nH]c(C(=O)NC(c3cccc(C(F)(F)F)c3)C(F)(F)F)cc2c1 (stereo not drawn) [Ic-9]
HPLC-MS: logP = 2.88; mass | NC(=O)c1cc2cc(C(=O)NC(c3cccc(C(F)(F)F)c3)C(F)(F)F)oc2cc1F (stereo not drawn) [Ic-16]
3.21 | ON=C(c1cc(F)cc(C(F)(F)F)c1)C(F)(F)F (racemic) [2,2,2-Trifluoro-1-[3-fluoro-5-(trifluoromethyl)phenyl]ethanone oxime]
HPLC-MS: logP = 3.72; mass | N#Cc1ccc2cc(C(=O)NC(c3cccc(C(F)(F)F)c3)C(F)(F)F)oc2c1 (stereo not drawn) [Ic-3]
HPLC-MS: logP = 3.51; mass | N#Cc1ccc2cc(C(=O)NC(c3cccc(C(F)(F)F)c3)C(F)(F)F)[nH]c2c1 (stereo not drawn) [Ic-8]
HPLC-MS: logP = 4.04; mass | N#Cc1ccc2oc(C(=O)NC(c3ccc(Cl)cc3Cl)C(F)(F)F)cc2c1 (stereo not drawn) [Ic-7]

Same assay, conditions: HPLC-MS

Compound | logP
COC(=O)c1ccc(C(NC(=O)/C=C/c2ccc(C(=O)NC3CC3)c(C(F)(F)F)c2)C(F)(F)F)cc1C(F)(F)F (stereo not drawn) [Ia-81] | HPLC-MS: logP = 3.09; mass
CC(=O)NCc1ccc(/C=C/C(=O)NC(c2cccc(C(F)(F)F)c2)C(F)(F)F)cc1C (stereo not drawn) [Ia-249] | HPLC-MS: logP = 2.9; mass
CCC(C)NC(=O)c1ccc(C=CC(=O)NC(c2cccc(C(F)(F)F)c2)C(F)(F)F)cc1Cl (mixture of isomers) [Ia-192] | HPLC-MS: logP = 3.71; mass
Cn1ccc(CNC(=O)c2ccc(/C=C/C(=O)NC(c3cccc(C(F)(F)F)c3)C(F)(F)F)cc2Cl)n1 (stereo not drawn) [Ia-186] | HPLC-MS: logP = 2.95; mass
O=C(/C=C/c1cccc(NC(=O)C2CC2)c1)NC(c1cccc(C(F)(F)F)c1)C(F)(F)F (stereo not drawn) [Ia-4] | HPLC-MS: logP = 3.42; mass
O=C(/C=C/c1ccc(C(=O)NC2CC2)cc1Cl)NC(c1cccc(C(F)(F)F)c1)C(F)(F)F (stereo not drawn) [Ia-233] | HPLC-MS: logP = 3.46; mass
CC(CF)NC(=O)c1ccc(/C=C/C(=O)NC(c2cccc(C(F)(F)F)c2)C(F)(F)F)cc1Br (stereo not drawn) [Ia-173] | HPLC-MS: logP = 3.35; mass
O=C(/C=C/c1ccc(NC(=O)c2cccnc2Cl)cc1)NC(c1cc(Cl)cc(Cl)c1)C(F)(F)F (stereo not drawn) [Ia-2] | HPLC-MS: logP = 3.69; mass
Cc1cc(/C=C/C(=O)NC(c2cc(Cl)cc(C(F)(F)F)c2)C(F)(F)F)ccc1C(=O)NC1CC1 (stereo not drawn) [Ia-39] | HPLC-MS: logP = 3.47; mass
O=C(/C=C/c1ccc(S(=O)(=O)NC2CC2)cc1)NC(c1cccc(C(F)(F)F)c1)C(F)(F)F (stereo not drawn) [Ia-117] | HPLC-MS: logP = 3.33; mass
O=C(/C=C/c1ccc(C(=O)Nc2cccnn2)c(Cl)c1)NC(c1cccc(C(F)(F)F)c1)C(F)(F)F (stereo not drawn) [Ia-217] | HPLC-MS: logP = 3.29; mass
O=C(/C=C/c1ccc(C(=O)NCc2ncccn2)c(Br)c1)NC(c1cccc(C(F)(F)F)c1)C(F)(F)F (stereo not drawn) [Ia-133] | HPLC-MS: logP = 2.93; mass
O=C(/C=C/c1ccc(-n2cncn2)c([N+](=O)[O-])c1)NC(c1cccc(C(F)(F)F)c1)C(F)(F)F (stereo not drawn) [Ia-9] | HPLC-MS: logP = 3.11; mass
Cc1cc(/C=C/C(=O)NC(c2cccc(C(F)(F)F)c2)C(F)(F)F)ccc1C(=O)NC1CC1 (stereo not drawn) [Ia-11] | HPLC-MS: logP = 3.02; mass
N#Cc1cc(/C=C/C(=O)NC(c2ccc(C(F)(F)F)cc2)C(F)(F)F)ccc1-n1cncn1 (stereo not drawn) [Ia-14] | HPLC-MS: logP = 3.08; mass
CS(=O)(=O)c1cccc(C(NC(=O)/C=C/c2ccc(C(=O)Nc3ccccn3)c(C(F)(F)F)c2)C(F)(F)F)c1 (stereo not drawn) [Ia-244] | HPLC-MS: logP = 2.62; mass
Cc1cccc(C(NC(=O)/C=C/c2ccc(C(=O)NC3CC3)c(C(F)(F)F)c2)C(F)(F)F)c1 (stereo not drawn) [Ia-232] | HPLC-MS: logP = 3.17; mass
O=C(/C=C/c1ccc(CNC(=O)C2CC2)c(C(F)(F)F)c1)NC(c1cccc(C(F)(F)F)c1)C(F)(F)F (stereo not drawn) [Ia-240] | HPLC-MS: logP = 3.76; mass
CCOC1(NC(=O)c2ccc(/C=C/C(=O)NC(c3cccc(C(F)(F)F)c3)C(F)(F)F)cc2C)CC1 (stereo not drawn) [Ia-85] | HPLC-MS: logP = 3.27 mass
O=C(/C=C/c1ccc(C(=O)NCc2ccc(F)cn2)c(Cl)c1)NC(c1cccc(C(F)(F)F)c1)C(F)(F)F (stereo not drawn) [Ia-236] | HPLC-MS: logP = 3.15; mass
N#Cc1cc(/C=C/C(=O)NC(c2cccc(C(F)(F)F)c2)C(F)(F)F)ccc1-n1cncn1 (stereo not drawn) [Ia-10] | HPLC-MS: logP = 2.99; mass
O=C(/C=C/c1ccc(NC(=O)CC(F)(F)F)cc1)NC(c1cccc(C(F)(F)F)c1)C(F)(F)F (stereo not drawn) [Ia-6] | HPLC-MS: logP = 3.43; mass
Cc1cc(/C=C/C(=O)NC(c2cc(Cl)cc(Cl)c2)C(F)(F)F)ccc1C(=O)NCC(F)(F)F (stereo not drawn) [Ia-20] | HPLC-MS: logP = 3.90; mass
O=C(/C=C/c1ccc(C(=O)Nc2cnccn2)c(Cl)c1)NC(c1cccc(C(F)(F)F)c1)C(F)(F)F (racemic) [Ia-216] | HPLC-MS: logP = 3.31; mass

Same assay, conditions: HPLC-MS; HPLC on reverse-phase column

Compound | logP
O=C(/C=C/c1ccc(CNc2cc(Cl)ccn2)cc1)NC(c1cccc(C(F)(F)F)c1)C(F)(F)F (stereo not drawn) [Ia-265] | HPLC-MS: logP = 3.15; mass
O=C(/C=C/c1ccc(C(=O)NCC(=O)NCC(F)(F)F)c(C(F)(F)F)c1)NC(c1cccc(C(F)(F)F)c1)C(F)(F)F (stereo not drawn) [Ia-262] | HPLC-MS: logP = 3.11; mass
O=C(/C=C/c1ccc(CNc2ccccn2)c(C(F)(F)F)c1)NC(c1cccc(C(F)(F)F)c1)C(F)(F)F (stereo not drawn) [Ia-263] | HPLC-MS: logP = 2.2; mass

Same assay, conditions: pH 2.7

logP | Compound
1.69 | O=C(O)/C=C/c1ccc(C(=O)Nc2ccccn2)c(C(F)(F)F)c1 [(2E)-3-[4-(Pyridin-2-yl)carbamoyl)-3-trifluoromethylphenyl]acrylic acid]

Same assay, conditions: reverse-phase C18 HPLC column, pH 2.7, HPLC, C18 reverse phase, 43° C., acidic range pH 2.7, calibration with alkan-2-ones

chromatographic logP | Compound
1.34 | O=C(O)/C=C/c1ccc(C(=O)NC2CC2)c(C(F)(F)F)c1 [(2E)-3-[4-(Cyclopropylcarbamoyl)-3-trifluoromethylphenyl]acrylic acid]
2.54 | O=C(c1cc(F)cc(C(F)(F)F)c1)C(F)(F)F [2,2,2-Trifluoro-1-[3-fluoro-5-(trifluoromethyl)phenyl]ethanone]
3.17 | ON=C(c1cc(F)cc(C(F)(F)F)c1)C(F)(F)F (racemic) [2,2,2-Trifluoro-1-[3-fluoro-5-(trifluoromethyl)phenyl]ethanone oxime]
3.1 | O=C(/C=C/c1ccc(C(=O)O)c(Cl)c1)NC(c1cccc(C(F)(F)F)c1)C(F)(F)F (stereo not drawn) [2-Chloro-4-[(1E)-3-oxo-3-({2,2,2-trifluoro-1-[3-(trifluoromethyl)phenyl]ethyl}amino)prop-1-en-1-yl]benzoic acid]
2.95 | CCOC(=O)c1cc(I)c(N)cc1Cl [Ethyl 4-amino-2-chloro-5-iodobenzoate]
2.94 | NC(c1cc(Cl)cc(C(F)(F)F)c1)C(F)(F)F (stereo not drawn) [1-[3-Chloro-5-(trifluoromethyl)phenyl]-2,2,2-trifluoroethanamine]
1.26 | O=C(O)/C=C/c1cc(C(F)(F)F)c(C(=O)NC2CC2)cn1 [(2E)-3-[5-(Cyclopropylcarbamoyl)-4-(trifluoromethyl)pyridin-2-yl]acrylic acid]
2.02 | NCc1ccc2oc(C(=O)NC(c3cccc(C(F)(F)F)c3)C(F)(F)F)cc2c1 (stereo not drawn) [5-(Aminomethyl)-N-{2,2,2-trifluoro-1-[3-(trifluoromethyl)phenyl]ethyl}-1-benzofuran-2-carboxamide]
2.13 | O=C(NC1CC1)c1ccc(Br)cc1C(F)(F)F [4-Bromo-N-cyclopropyl-2-(trifluoromethyl)benzamide]
2.55 | N/C(=N\O)c1ccc(/C=C/C(=O)NC(c2cccc(C(F)(F)F)c2)C(F)(F)F)cc1C(F)(F)F (stereo not drawn) [(2E)-3-[4-(N′-Hydroxycarbamimidoyl)-3-(trifluoromethyl)phenyl]-N-{2,2,2-trifluoro-1-[3-(trifluoromethyl)phenyl]ethyl}acrylamide]
1.56 | O=C(NCc1ccccn1)c1ccc(Br)cc1C(F)(F)F [4-Bromo-N-(pyridin-2-ylmethyl)-2-(trifluoromethyl)benzamide]
0.92 | NCc1ccc(Br)cc1C(F)(F)F [1-[4-Bromo-2-(trifluoromethyl)phenyl]methanamine]
2.51 | NC(c1cc(F)cc(C(F)(F)F)c1)C(F)(F)F (stereo not drawn) [α,3-Bis(trifluoromethyl)-5-fluorobenzenemethanamine]
1.61 | NCc1ccc(/C=C/C(=O)NC(c2cccc(C(F)(F)F)c2)C(F)(F)F)cc1C(F)(F)F (stereo not drawn) [(2E)-3-[4-(Aminomethyl)-3-(trifluoromethyl)phenyl]-N-{2,2,2-trifluoro-1-[3-(trifluoro-methyl)phenyl]ethyl}acrylamide]
3.34 | O=C(C#Cc1ccc(C(=O)NC2CC2)c(Cl)c1)NC(c1cccc(C(F)(F)F)c1)C(F)(F)F (stereo not drawn) [2-Chloro-N-cyclopropyl-4-[3-oxo-3-({2,2,2-trifluoro-1-[3-(trifluoromethyl)phenyl]ethyl}amino)prop-1-yn-1-yl]benzamide]
4.74 | CCOC(=O)c1cc2cc(C(=O)NC(c3cccc(C(F)(F)F)c3)C(F)(F)F)n(C)c2cc1Cl (stereo not drawn) [Ethyl 6-chloro-1-methyl-2-({2,2,2-trifluoro-1-[3-(trifluoromethyl)phenyl]ethyl}carbamoyl)-1H-indole-5-carboxylate]
3.15 | O=C(/C=C/c1ccc(C(=O)O)c(Br)c1)NC(c1cccc(C(F)(F)F)c1)C(F)(F)F (stereo not drawn) [2-Bromo-4-[(1E)-3-oxo-3-({2,2,2-trifluoro-1-[3-(trifluoromethyl)phenyl]ethyl}amino)prop-1-en-1-yl]benzoic acid]
3.11 | CC(C)(C)OC(=O)c1ccc(C=O)c(O)c1 [tert-Butyl 4-formyl-3-hydroxybenzoate]

Compound | chromatographic logP
CC(C)(C)OC(=O)NC1CCc2cc(/C=C/C(=O)O)ccc21 (stereo not drawn) [(2E)-3-{1-[(tert-Butoxycarbonyl)amino]-2,3-dihydro-1H-inden-5-yl}acrylic acid] | 2.47

Same assay, conditions: reverse-phase C18 HPLC column; HPLC, C18 reverse phase, 43° C., acidic range pH 2.7, calibration with alkan-2-ones

Compound | chromatographic logP
CC(C)(C)OC(=O)NCc1ccc(/C=C/C(=O)NC(c2cccc(C(F)(F)F)c2)C(F)(F)F)cc1C(F)(F)F (stereo not drawn) [tert-Butyl {4-[1E)-3-oxo-3-({2,2,2-trifluoro-1-[3-(trifluoromethyl)phenyl]ethyl}amino)prop-1-en-1-yl]-2-(trifluoromethyl)benzyl}carbamate] | 4.4
